Experimental data published in publication PMC8389614, “A Comparison of Acute Pharmacological Effects of Methylone and MDMA Administration in Humans and Oral Fluid Concentrations as Biomarkers of Exposure” (Biology, 2021).

Columns and labels:
healthy poly-drug users [1] = experiment: Subjective effects, visual analogue scales (VAS); type: in vivo, humans; design: key to VAS stimulated Dunnet’s Test / VAS change in lights Dunnet’s Test / VAS different body feeling Dunnet’s Test / VAS different surrounding Dunnet’s Test / VAS dizziness Dunnet’s Test / VAS headache Dunnet’s Test / VAS face flushing Dunnet’s Test: “a” (times 0–1 h); “b” (times 0–2 h); “c” (times 0–4 h); not significant (NS)
Source text: (§1) The study was designed as a non-controlled prospective observational study in a naturalistic setting with methylone and MDMA self-administration. The methodology, including procedures and evaluations, coincides with previous observational–naturalistic studies aimed at evaluating the acute effects of other NPS [38, 39, 40]. Six subjects (5 M, 1 F) self-administered MDMA and 8 subjects (5 M, 3 F) self-administered methylone. Each subject participated only in one session. Participants brought their own substance obtained from an unknown source, which was tested by Energy Control, a harm reduction organization that provides a drug checking service to drug users. Pills containing methylone and MDMA were analyzed by gas chromatography associated with mass spectrometry (GC/MS), a technique that traces the presence of the most frequent drugs of abuse, such as MDMA, cocaine, heroin, amphetamine and methamphetamine, LSD, and multiple NPS (methylone, mephedrone, and other synthetic cathinones, synthetic cannabinoids, tryptamines, among others).
(§2) In both sessions, participants selected the dose of methylone or MDMA according to their previous drug use experience. Doses of methylone could be selected from a range (75–300 mg) that was previously defined according to the consulted literature. The WHO Expert Committee on Drug Dependence (Thirty-Sixth Meeting, Geneva, Switzerland, 16–20 June 2014) established that 60 mg of methylone was the threshold dose and doses over 250 mg were often related to very strong activity. Some users have reported uses of 300 mg of methylone as a common dose [www.erowid.org] (accessed on 15 June 2021). The mean of the selected doses of MDMA was 87.50 mg (3 subjects ingested 75 mg (2 males and 1 female), 3 males 100 mg). In the other study session, methylone doses ranged from 100 to 300 mg, with a mean of 187.50 mg. Based on their dose selection, 1 male ingested 100 mg, 2 subjects 150 mg (1 male and 1 female), 4 subjects 200 mg (2 males and 2 females), and 1 male 300 mg.
(§3) The sessions were conducted in a naturalistic setting. Participants were allowed to talk, read, listen to music, or play games, except during the evaluation times. However, they were asked to refrain from talking about the effects of the substance. All the subjects were evaluated simultaneously at baseline, 1, 2, and 4 h after administration of methylone or MDMA, which occurred approximately at 16:00 h. At each time point, evaluations were followed in a specific order: physiological effects, oral fluid collection, and subjective effects scales and questionnaires.
(§4) Subjective effects were evaluated at baseline, 1, 2, and 4 h after self-administration using visual analogue scales (VAS), the Addiction Research Center Inventory (ARCI), and the Evaluation of Subjective Effects of Substances with Abuse Potential questionnaire (VESSPA-SSE).
Visual analogue scales (100 mm, from “not at all” to “extremely”) contained 30 items that subjects were asked to rate, such as: intensity, stimulated, high, good effects, liking, happiness, drunkenness, changes in colors, changes in shapes, changes in lights, hallucinations (seeing lights or spots), hallucinations (seeing of animals), changes in hearing, hallucinations (hearing sounds or voices), different or changed body feeling, unreal body feeling, changes in distances, different surroundings, unreal surroundings, confusion, fear, depression or sadness, drowsiness, dizziness, bad effects, headache, sickness, vertigo, shortness of breath, and face flushing.
Vital signs (SBP, DBP, and HR) and subjective effects (VAS, ARCI, and VESSPA-SSE) were baseline-adjusted. Maximum effects and the time in which maximum effects appeared were determined, and the area under the curve (AUC0–4h) was calculated with the trapezoidal rule. […]

healthy poly-drug users [2] = experiment: Subjective effects, VESSPA-SSE questionnaire; type: in vivo, humans; design: key to VESSPA PS Dunnet’s Test: “a” (times 0–1 h); “b” (times 0–2 h); “c” (times 0–4 h); not significant (NS)
Source text: as §1, §2, §3, §4
The VESSPA-SSE is a questionnaire sensitive to subjective effects related to stimulants such as MDMA that includes six subscales: sedation (S), psychosomatic anxiety (ANX), changes in perception (CP), pleasure and sociability (SOC), activity and energy (ACT), and psychotic symptoms (PS).
Vital signs (SBP, DBP, and HR) and subjective effects (VAS, ARCI, and VESSPA-SSE) were baseline-adjusted. Maximum effects and the time in which maximum effects appeared were determined, and the area under the curve (AUC0–4h) was calculated with the trapezoidal rule.
Thirdly, to find possible significant changes from baseline, a Dunnett multiple comparison test was conducted to compare each time point with baseline in both drug conditions (0–1 h, 0–2 h, 0–4 h).

[3] = oral, methylone 100–300 mg n=8, MDMA 75–100 mg n=6, baseline-adjusted, mean ± SD
[4] = time points significantly different from baseline

SMILES: CNC(C)Cc1ccc2c(c1)OCO2 (centres unmarked) [MDMA, 3,4-methylenedioxymethamphetamine]
- Time at which subjective effects in general reached maximum values (healthy poly-drug users [1]; oral, VAS, ARCI, VESSPA-SSE overall): 1.5 h
- VAS change in lights AUC0–4h (healthy poly-drug users [1]; [3]): 40.00 ± 53.35
- VAS change in lights Emax (healthy poly-drug users [1]; [3]): 20.00 ± 25.11 mm
- VAS content AUC0–4h (healthy poly-drug users [1]; [3]): 186.25 ± 52.39
- VAS content Emax (healthy poly-drug users [1]; [3]): 74.50 ± 18.96 mm
- VAS different body feeling AUC0–4h (healthy poly-drug users [1]; [3]): 95.25 ± 53.40
- VAS different body feeling Emax (healthy poly-drug users [1]; [3]): 50.33 ± 22.59 mm
- VAS different surrounding AUC0–4h (healthy poly-drug users [1]; [3]): 27.33 ± 39.71
- VAS different surrounding Emax (healthy poly-drug users [1]; [3]): 17.33 ± 17.68 mm
- VAS dizziness AUC0–4h (healthy poly-drug users [1]; [3]): 20.17 ± 20.68
- VAS dizziness Emax (healthy poly-drug users [1]; [3]): 13.00 ± 9.84 mm
- VAS face flushing AUC0–4h (healthy poly-drug users [1]; [3]): 89.33 ± 58.31
- VAS face flushing Emax (healthy poly-drug users [1]; [3]): 45.00 ± 22.74 mm
- VAS good effects AUC0–4h (healthy poly-drug users [1]; [3]): 167.67 ± 54.01
- VAS good effects Emax (healthy poly-drug users [1]; [3]): 67.83 ± 16.51 mm
- VAS headache AUC0–4h (healthy poly-drug users [1]; [3]): 10.58 ± 18.86
- VAS headache Emax (healthy poly-drug users [1]; [3]): 5.83 ± 7.68 mm
- VAS high AUC0–4h (healthy poly-drug users [1]; [3]): 136.92 ± 41.05
- VAS high Emax (healthy poly-drug users [1]; [3]): 60.17 ± 14.96 mm
- VAS intensity AUC0–4h (healthy poly-drug users [1]; [3]): 111.33 ± 36.34
- VAS intensity Emax (healthy poly-drug users [1]; [3]): 47 ± 11.19 mm
- VAS stimulated AUC0–4h (healthy poly-drug users [1]; [3]): 113.17 ± 40.92
- VAS stimulated Emax (healthy poly-drug users [1]; [3]): 50.17 ± 17.12 mm
- VAS change in lights Tmax (healthy poly-drug users [1]; oral, methylone 100–300 mg n=8, MDMA 75–100 mg n=6, median (min–max)): 1.5 (0.0–4.0) h
- VAS change in lights Dunnet’s Test (healthy poly-drug users [1]; [4]): NS
- VAS content Dunnet’s Test (healthy poly-drug users [1]; [4]): a, b, c
- VAS different body feeling Dunnet’s Test (healthy poly-drug users [1]; [4]): a
- VAS different surrounding Dunnet’s Test (healthy poly-drug users [1]; [4]): a
- VAS dizziness Dunnet’s Test (healthy poly-drug users [1]; [4]): NS
- VAS face flushing Dunnet’s Test (healthy poly-drug users [1]; [4]): a
- VAS good effects Dunnet’s Test (healthy poly-drug users [1]; [4]): a, b
- VAS headache Dunnet’s Test (healthy poly-drug users [1]; [4]): NS
- VAS high Dunnet’s Test (healthy poly-drug users [1]; [4]): a, b
- VAS intensity Dunnet’s Test (healthy poly-drug users [1]; [4]): a, b
- VAS stimulated Dunnet’s Test (healthy poly-drug users [1]; [4]): a, b
- VESSPA ACT (activity and energy) AUC0–4h (healthy poly-drug users [2]; [3]): 32.58 ± 15.71
- VESSPA ACT (activity and energy) Emax (healthy poly-drug users [2]; [3]): 13.33 ± 4.84 score
- VESSPA ANX (psychosomatic anxiety) AUC0–4h (healthy poly-drug users [2]; [3]): 16.50 ± 8.82
- VESSPA ANX (psychosomatic anxiety) Emax (healthy poly-drug users [2]; [3]): 6.67 ± 4.37 score
- VESSPA PS (psychotic symptoms) AUC0–4h (healthy poly-drug users [2]; [3]): 2.25 ± 2.36
- VESSPA PS (psychotic symptoms) Emax (healthy poly-drug users [2]; [3]): 1.33 ± 1.21 score
- VESSPA S (sedation) AUC0–4h (healthy poly-drug users [2]; [3]): 5.92 ± 6.09
- VESSPA S (sedation) Emax (healthy poly-drug users [2]; [3]): 2.83 ± 2.23 score
- VESSPA SOC (pleasure and sociability) AUC0–4h (healthy poly-drug users [2]; [3]): 38.67 ± 17.84
- VESSPA SOC (pleasure and sociability) Emax (healthy poly-drug users [2]; [3]): 14.50 ± 5.96 score
- VESSPA ACT Dunnet’s Test (healthy poly-drug users [2]; [4]): a, b
- VESSPA ANX Dunnet’s Test (healthy poly-drug users [2]; [4]): a, b
- VESSPA PS Dunnet’s Test (healthy poly-drug users [2]; [4]): NS
- VESSPA S Dunnet’s Test (healthy poly-drug users [2]; [4]): a, c
- VESSPA SOC Dunnet’s Test (healthy poly-drug users [2]; [4]): a, b
